# According to PubChem BioAssay AID2060890 (Molecular Pharmacology Branch, DTP, NCI, 2025):
# Test system: LG0703-F948-PDC complex spheroid viability
# Assay: Anticancer human tumor LG0703-F948-PDC patient-derived lung adenocarcinoma cell line growth inhibition [RAS]
# Details: for viability, T/C: stronger effect = lower value
# Method in brief: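 Tumour cells grown as complex spheroids with HUVEC endothelial cells and mesenchymal stem cells, treated with RAS pathway inhibitor combinations. Each agent spans half-log steps from near clinical Cmax, or 10 microM where Cmax is unknown.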
# [1] = curve of first compound, second compound 0.000949 µM
# [2] = curve of first compound, second compound 0.003 µM
# [3] = curve of first compound, second compound 0.00949 µM
# [4] = curve of first compound, second compound 0.03 µM
# [5] = curve of first compound, second compound 0.0949 µM
# [6] = curve of first compound, second compound 0.3 µM
# [7] = second compound 0.000949 µM, first compound 0.0316 µM
# [8] = second compound 0.000949 µM, first compound 0.1 µM
# [9] = second compound 0.000949 µM, first compound 0.316 µM
# [10] = second compound 0.000949 µM, first compound 1 µM
# [11] = second compound 0.000949 µM, first compound 3.16 µM
# [12] = second compound 0.000949 µM, first compound 10 µM
# [13] = second compound 0.003 µM, first compound 0.0316 µM
# [14] = second compound 0.003 µM, first compound 0.1 µM
# [15] = second compound 0.003 µM, first compound 0.316 µM
# [16] = second compound 0.003 µM, first compound 1 µM
# [17] = second compound 0.003 µM, first compound 3.16 µM
# [18] = second compound 0.003 µM, first compound 10 µM
# [19] = second compound 0.00949 µM, first compound 0.0316 µM
# [20] = second compound 0.00949 µM, first compound 0.1 µM
# [21] = second compound 0.00949 µM, first compound 0.316 µM
# [22] = second compound 0.00949 µM, first compound 1 µM
# [23] = second compound 0.00949 µM, first compound 3.16 µM
# [24] = second compound 0.00949 µM, first compound 10 µM
# [25] = second compound 0.03 µM, first compound 0.0316 µM
# [26] = second compound 0.03 µM, first compound 0.1 µM
# [27] = second compound 0.03 µM, first compound 0.316 µM
# [28] = second compound 0.03 µM, first compound 1 µM
# [29] = second compound 0.03 µM, first compound 3.16 µM
# [30] = second compound 0.03 µM, first compound 10 µM
# [31] = second compound 0.0949 µM, first compound 0.0316 µM
# [32] = second compound 0.0949 µM, first compound 0.1 µM
# [33] = second compound 0.0949 µM, first compound 0.316 µM
# [34] = second compound 0.0949 µM, first compound 1 µM
# [35] = second compound 0.0949 µM, first compound 3.16 µM
# [36] = second compound 0.0949 µM, first compound 10 µM
# [37] = second compound 0.3 µM, first compound 0.0316 µM
# [38] = second compound 0.3 µM, first compound 0.1 µM
# [39] = second compound 0.3 µM, first compound 0.316 µM
# [40] = second compound 0.3 µM, first compound 1 µM
# [41] = second compound 0.3 µM, first compound 3.16 µM
# [42] = second compound 0.3 µM, first compound 10 µM
# 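Also: spheroids exposed to agents for 7 days.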
# 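For viability, T/C in this document: 100% = DMSO vehicle wells.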
structure (smiles),measurement,setting,value
C=CC(=O)N1CCN(c2nc(OCC3CCCN3C)nc3c(F)c(-c4nc(N)cc(C)c4C(F)(F)F)c(Cl)cc23)C(C)C1 (centres undefined),"viability, T/C",compound 0.01 µM,102% [middle of 11 runs]
same,"viability, T/C",compound 0.1 µM,106% [middle of 11 runs]
same,"viability, T/C",compound 1 µM,112% [middle of 11 runs]
same,IC50,"compound alone, run of 09/09/2024",> 1 µM
same,IC50,curve of compound,> 1 µM
CC(C)NCC(C(=O)N1CCN(c2ncnc3c2C(C)CC3O)CC1)c1ccc(Cl)cc1 (centres undefined) + CCn1c(-c2cccnc2C(C)OC)c2c3cc(ccc31)N1CCOC(CC(NC(=O)C(C(C)C)N(C)C(=O)C3(F)CCN(C(=O)C#CC(C)(C)N(C)C)CC3)C(=O)N3CCCC(N3)C(=O)OCC(C)(C)C2)C1,IC50,[1],1.8 µM
same,IC50,[2],2.75 µM
same,IC50,[3],0.858 µM
same,IC50,[4],1.42 µM
same,IC50,[5],0.511 µM
same,IC50,[6],< 0.0316 µM
same,"viability, T/C",[7],103%
same,"viability, T/C",[8],86%
same,"viability, T/C",[9],73.6%
same,"viability, T/C",[10],51.9%
same,"viability, T/C",[11],47.4%
same,"viability, T/C",[12],35.6%
same,"viability, T/C",[13],104%
same,"viability, T/C",[14],79.8%
same,"viability, T/C",[15],77.9%
same,"viability, T/C",[16],56.3%
same,"viability, T/C",[17],50.8%
same,"viability, T/C",[18],38.4%
same,"viability, T/C",[19],100%
same,"viability, T/C",[20],98%
same,"viability, T/C",[21],65.5%
same,"viability, T/C",[22],49%
same,"viability, T/C",[23],52.5%
same,"viability, T/C",[24],39.3%
same,"viability, T/C",[25],99.3%
same,"viability, T/C",[26],86.4%
same,"viability, T/C",[27],67.9%
same,"viability, T/C",[28],53.3%
same,"viability, T/C",[29],43.1%
same,"viability, T/C",[30],35.1%
same,"viability, T/C",[31],74.8%
same,"viability, T/C",[32],66%
same,"viability, T/C",[33],51.3%
same,"viability, T/C",[34],42.4%
same,"viability, T/C",[35],42.5%
same,"viability, T/C",[36],28.9%
same,"viability, T/C",[37],46.8%
same,"viability, T/C",[38],38.6%
same,"viability, T/C",[39],33.6%
same,"viability, T/C",[40],23.8%
same,"viability, T/C",[41],27.4%
same,"viability, T/C",[42],15.5%
Cc1nc(N2CCC3(CC2)COC(C)C3N)c(CO)nc1Sc1ccnc(N)c1Cl (centres undefined) + CCn1c(-c2cc(N3CCN(C)CC3)cnc2C(C)OC)c2c3cc(ccc31)-c1csc(n1)CC(NC(=O)C1CC1C)C(=O)N1CCCC(N1)C(=O)OCC(C)(C)C2,IC50,[1],0.093 µM
same,IC50,[2],< 0.0316 µM
same,IC50,[3],< 0.0316 µM
same,IC50,[4],< 0.0316 µM
same,IC50,[5],< 0.0316 µM
same,IC50,[6],< 0.0316 µM
same,"viability, T/C",[7],68%
same,"viability, T/C",[8],48%
same,"viability, T/C",[9],32.7%
same,"viability, T/C",[10],18.2%
same,"viability, T/C",[11],11.3%
same,"viability, T/C",[12],8.65%
same,"viability, T/C",[13],32.3%
same,"viability, T/C",[14],23.9%
same,"viability, T/C",[15],21.1%
same,"viability, T/C",[16],14.9%
same,"viability, T/C",[17],6.78%
same,"viability, T/C",[18],5.16%
same,"viability, T/C",[19],26%
same,"viability, T/C",[20],15.7%
same,"viability, T/C",[21],10.6%
same,"viability, T/C",[22],10.2%
same,"viability, T/C",[23],6.57%
same,"viability, T/C",[24],7.31%
same,"viability, T/C",[25],13.2%
same,"viability, T/C",[26],11.6%
same,"viability, T/C",[27],8.59%
same,"viability, T/C",[28],4.72%
same,"viability, T/C",[29],7.7%
same,"viability, T/C",[30],5.42%
same,"viability, T/C",[31],10.1%
same,"viability, T/C",[32],7.94%
same,"viability, T/C",[33],6.73%
same,"viability, T/C",[34],6.62%
same,"viability, T/C",[35],6.38%
same,"viability, T/C",[36],3.71%
same,"viability, T/C",[37],7.15%
same,"viability, T/C",[38],6.24%
same,"viability, T/C",[39],5.96%
same,"viability, T/C",[40],3.97%
same,"viability, T/C",[41],3.82%
same,"viability, T/C",[42],4.35%
